Common to all, as to type: cell-based, human
The subject of one assay is MDA-MB-231 cells. In words: Dose response assay, ATPlite viability, four days. The conditions noted are these: MDA-MB-231, four days of treatment, ATP viability. The method, then: (§1) Cells were seeded in white 96-well plates (Costar, Tewksbury, MA, USA) in 100 μL of their respective media at varying densities to achieve 80% to 90% confluency after five days in culture. The compounds dissolved in DMSO were diluted in their corresponding media containing 2% FBS and an EP Motion 5075 (Eppendorf North America, Hauppauge, NY, USA) liquid handler was utilized to perform a serial dilution. […] After the cells were cultured for 24 hours, the media were aspirated and the cells were treated with the compounds and vehicle controls in triplicate. After four days of treatment, viability was determined utilizing the ATPlite 1step assay system (Perkin Elmer, Waltham, MA, USA) according to the manufacturer's instructions. Luminescence measurements were acquired utilizing a Perkin Elmer 2104 EnVision plate reader. Raw luminescence values were normalized to the DMSO vehicle control wells.

For the next assay, the system named is T47D cells. As to the kind of experiment: Dose response assay, ATPlite viability, four days. The conditions noted are these: four days of treatment, ATP viability. The method, then: as §1
Assay [1] relates to MCF-7 cells. As to the kind of experiment: Dose response assay, ATPlite viability, four days. The conditions noted are these: MCF-7, four days of treatment, ATP viability. The method, then: as §1
A further assay deals with PE1008032 cells. In words: Dose response assay, ATPlite viability, four days. The conditions noted are these: PE1008032, four days of treatment, ATP viability. On the procedure:
as §1

Another assay concerns PE1007070 cells. In words: Dose response assay, ATPlite viability, four days. The conditions noted are these: PE1007070, four days of treatment, ATP viability. On the procedure: as §1
In another assay the test system is PE904557a cells. In words: Dose response assay, ATPlite viability, four days. The settings on record: four days of treatment, ATP viability, N/A = data could not be fitted. On the procedure: as §1
A further assay relates to LC3A/B-II. In words: Western blot for LC3A/B-II (autophagy). The settings on record: most cells, 50 μM, 24 hours. On the procedure: Cells were lysed in cold radioimmunoprecipitation assay buffer (50 mM Tris HCl, 150 mM NaCl, 0.1% sodium dodecyl sulfate (SDS), 0.5% sodium deoxycholate, 1% Triton X-100, pH = 8.0) supplemented with protease inhibitor cocktail (Sigma), phosphatase inhibitor cocktail 2 (Sigma) and 1 mM dithiothreitol (DTT) (Sigma). The lysate was sonicated for 30 seconds using a 450 Sonifier (Branson Ultrasonics, Danbury, CT, USA) and was centrifuged at 14,000 RPM for five minutes at 4°C. The protein concentration was determined using the BCA protein assay kit (Peirce, Rockford, IL, USA) and the samples were boiled for five minutes with 4× SDS Laemmli buffer. Equal amounts of protein were resolved on SDS polyacrylamide gels and transferred to an Immobilon-FL PVDF membrane (EMD Millipore). Blots were blocked in Odyssey Blocking Buffer (LI-COR, Lincoln, NE, USA) for one hour at room temperature, stained with primary antibodies overnight at 4°C, washed, and stained with IR800CW or IR680 anti-mouse or rabbit secondary antibodies (LI-COR) for one hour at room temperature. Blots were imaged with the Odyssey Infrared Imaging System (LI-COR).

For assay [2], the system named is MCF-7 cells. As to the kind of experiment: Pan-caspase inhibitor effect on C-6 induced cell death. The settings on record: data not shown.
[3] abbreviates: Homo sapiens, 96 h, N/A = data could not be fitted.

Each structure is given as a SMILES string. Counter-ions that a name gives are not always drawn. Peptide text beside a SMILES is read from it. * marks the point of attachment. Cbz = O=C(OCc1ccccc1)*; CH2F = FC*

Take `CC(=O)O[C@H]1C(=O)[C@@]2(C)[C@H]([C@H](OC(=O)c3ccccc3)[C@]3(O)C[C@H](OC(=O)[C@H](O)[C@@H](NC(=O)c4ccccc4)c4ccccc4)C(C)=C1C3(C)C)[C@]1(OC(C)=O)CO[C@@H]1C[C@@H]2O` [Taxol, paclitaxel]: the concentration giving a half-maximal response (EC50) with MDA-MB-231 cells (Homo sapiens, 96 h) worked out at 2.52 nM; in the assay with T47D cells (Homo sapiens, 96 h), 13.7 nM; with MCF-7 cells [1] (Homo sapiens, MCF7, 96 h), 0.299 nM.

As to `N.N.[Cl][Pt][Cl]` [Cisplatin, cis-diammineplatinum (II) dichloride], the EC50 in the assay on PE1008032 cells was 19400 nM; in the assay on MDA-MB-231 cells it was 6880 nM; in the assay on T47D cells it was 50200 nM; with MCF-7 cells [1], 8670 nM; in the assay with PE1007070 cells, 10100 nM.

As for `CC(C)C[C@H](NC(=O)[C@H](Cc1ccccc1)NC(=O)c1cnccn1)B(O)O` [Bortezomib, bortezomib], the EC50 in the assay with PE1008032 cells (setting [3]) was 3.33 nM; with MDA-MB-231 cells (Homo sapiens, 96 h), 35 nM; with T47D cells (Homo sapiens, 96 h), 33 nM; with PE904557a cells (Homo sapiens, 96 h), 32 nM; in the assay on MCF-7 cells [1] (Homo sapiens, MCF7, 96 h) it was 5.71 nM; in the assay on PE1007070 cells (setting [3]), 14.6 nM.

With `CCN(CC)CCCC(C)Nc1ccnc2cc(Cl)ccc12` (stereo not shown) [chloroquine, Chloroquine], the LC3A/B-II levels entry in the assay with LC3A/B-II was “significant increase”.

Turning to `COC(=O)C[C@H](NC(=O)[C@H](C)NC(=O)[C@@H](NC(=O)OCc1ccccc1)C(C)C)C(=O)CF` [Z-VAD-FMK] (Cbz-Val-Ala-Asp(OMe)-CH2F), in the assay with MCF-7 cells [2], the “effect on C-6 induced cell death” value is listed as “did not affect”.

With `Cc1[nH]c2ccccc2c1CCNCc1ccc(/C=C/C(=O)NO)cc1` [LBH589, panobinostat], the EC50 in the assay on PE1008032 cells (setting [3]) was 13.7 nM; in the assay with MDA-MB-231 cells (Homo sapiens, 96 h) it was 23.1 nM; with T47D cells (Homo sapiens, 96 h), 31 nM; in the assay on PE904557a cells (Homo sapiens, 96 h) it was 90.5 nM; in the assay on MCF-7 cells [1] (Homo sapiens, MCF7, 96 h), 21.6 nM; with PE1007070 cells (setting [3]) it was 185 nM.

`COc1cccc2c1C(=O)c1c(O)c3c(c(O)c1C2=O)C[C@@](O)(C(=O)CO)C[C@@H]3O[C@H]1C[C@H](N)[C@H](O)[C@H](C)O1` [Doxorubicin, doxorubicin hydrochloride]: the EC50 amounted to 346 nM in the assay on PE1008032 cells (setting [3]); 110 nM in the assay with MDA-MB-231 cells (Homo sapiens, 96 h); 192 nM with T47D cells (Homo sapiens, 96 h); 736 nM in the assay on PE904557a cells (Homo sapiens, 96 h); 261 nM in the assay with MCF-7 cells [1] (Homo sapiens, MCF7, 96 h); 677 nM in the assay on PE1007070 cells (setting [3]).

Take `C=CCNC1=C2C[C@@H](C)C[C@H](OC)[C@H](O)[C@@H](C)/C=C(\C)[C@H](OC(N)=O)[C@@H](OC)/C=C\C=C(/C)C(=O)NC(=CC1=O)C2=O` [17-AAG, 17-(allylamino)-17-demethoxygeldanamycin]: the EC50 came out at 1660 nM in the assay with PE1008032 cells; 1500 nM in the assay with MDA-MB-231 cells; 1410 nM with T47D cells; 36.8 nM in the assay with PE904557a cells; 867 nM in the assay on MCF-7 cells [1]; 1150 nM in the assay on PE1007070 cells.

Turning to `Nc1ccn([C@@H]2O[C@H](CO)[C@@H](O)C2(F)F)c(=O)n1` [Gemcitabine, gemcitabine hydrochloride], the concentration for a half-maximal effect (EC50) is 9.63 nM in the assay with MDA-MB-231 cells (Homo sapiens, 96 h); 6.29 nM in the assay on T47D cells (Homo sapiens, 96 h); 2.73 nM in the assay with MCF-7 cells [1] (Homo sapiens, MCF7, 96 h).

The values above are taken from PMC4028696, “Development of a screen to identify selective small molecules active against patient-derived metastatic and chemoresistant breast cancer cells” (Breast Cancer Research : BCR, 2013).
